Data on one compound can be found in PubChem BioAssay AID504759 (National Center for Advancing Translational Sciences (NCATS), 2011).

The series concerns Caco-2 monolayer bidirectional permeability, LC-MS/MS. Description: Inhibitors of Cruzain: Efflux Ratio Profiling. As to conditions: stronger effect = lower value. The text has this: Chagas Disease is a neglected tropical disease that affects over 16 million people in Latin America. The cysteine protease cruzain is essential for the survival Trypanosoma cruzi, the parasitic agent responsible for Chagas disease. Potential intervention for T. cruzi includes the inhibition of cruzain. This bioassay will summarize the ongoing development of small molecule cruzain inhbitiors. Currently, a screen of ~200k compounds and through extensive follow-up work a probe was identified. To further characterize the probe, it was tested in in vitro ADME assays. This bioassays provides profiling data on Caco-2 cell permeability of leads compounds developed for the HPGD project. This in vitro model is often predictive of in vivo efflux of the compound by measuring the ratio of transport in and out the plasma membrane of the Caco2-cell line. NIH Chemical Genomics Center [NCGC] NIH Molecular Libraries Probe Production Centers Network [MLPCN] MLSCN Grant: DA024891-01 PI Name: Dr. Brian Shoichet; University of California, San Francisco
1. Buffer Preparation: Prepare 1M HEPES: add 23.83g HEPES to 100ml of 0.85% NaCl Prepare HBSS+ buffer: add 12.8ml of 1M HEPES in 0.85% NaCl to 500ml HBSS buffer. 2. […] The T0, LY and T90, LY plates are read by FlexStation 3 at excitation of 485 nm and emission of 535 nm to determine LY permeability. […]

For orientation: efflux ratio means a quotient of directional permeabilities that is used to spot active efflux. `Cc1ccc(OCCn2c(CCNC(=O)C3CCCCC3)nc3ccccc32)cc1`: the efflux ratio was 1.1.
